A word on the IC50: it is the concentration at which inhibition is half-maximal.

The record followed here is patent publication US20230174507A1, “IMIDAZOLE 3-OXIDE DERIVATIVE BASED ACSS2 INHIBITORS AND METHODS OF USE THEREOF” (METABOMED LTD., priority 2020, published 2023).

Assay [1] concerns the target T1, human ACSS2 protein (Homo sapiens, UniProt Q9NR19).
T1 construct: purchased OriGene Technologies, Inc
The assay is described as follows: ACSS2 cell-free activity assay (pyrophosphatase-coupled, Biomol green). The conditions noted are these: 10 nM human ACSS2, 90 minutes at 37 C, absorbance at 620 nm; read-out: ACSS2 Biochemical IC50. Summed up: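 10 nM human ACSS2 incubated 90 min at 37 C with compound, 300 μM ATP, 10 μM CoA, 5 mM NaAc in pH 7.5 Hepes buffer with 0.5 U/ml pyrophosphatase. Released phosphate detected with Biomol Green at 620 nm; IC50 by non-linear regression constrained to 0% and 100%.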

Assay [2] has as its target T2, human ACSS1 protein (Homo sapiens, UniProt Q9NUB1).
T2 construct: purchased MyBioSource
T2 sequence (Q9NUB1 38-689): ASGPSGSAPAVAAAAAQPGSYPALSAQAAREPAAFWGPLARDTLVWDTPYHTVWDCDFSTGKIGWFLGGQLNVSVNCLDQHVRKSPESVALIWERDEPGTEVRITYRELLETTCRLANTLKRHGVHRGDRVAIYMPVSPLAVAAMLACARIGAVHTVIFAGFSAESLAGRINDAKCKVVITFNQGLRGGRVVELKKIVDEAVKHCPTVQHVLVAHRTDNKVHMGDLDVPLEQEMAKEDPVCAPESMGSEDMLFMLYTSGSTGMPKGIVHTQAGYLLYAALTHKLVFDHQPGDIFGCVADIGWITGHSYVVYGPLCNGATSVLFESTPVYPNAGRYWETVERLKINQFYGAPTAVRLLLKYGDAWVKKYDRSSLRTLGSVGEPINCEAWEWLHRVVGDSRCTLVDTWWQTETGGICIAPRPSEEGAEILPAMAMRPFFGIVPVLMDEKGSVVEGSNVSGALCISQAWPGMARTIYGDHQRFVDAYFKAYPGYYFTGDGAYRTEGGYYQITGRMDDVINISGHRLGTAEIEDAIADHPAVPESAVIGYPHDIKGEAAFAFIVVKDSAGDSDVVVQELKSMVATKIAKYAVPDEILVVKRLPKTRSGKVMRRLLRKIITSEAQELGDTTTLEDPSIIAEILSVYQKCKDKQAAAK
The assay is described as follows: ACSS1 cell-free activity assay (pyrophosphatase-coupled, Biomol green). The class given is biochemical. The following applies: 5 nM human ACSS1, 30 minutes at room temperature, absorbance at 620 nm. Summed up: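 5 nM human ACSS1 incubated 30 min at RT with compound in pH 7.5 Hepes buffer with 15 μM CoA, 5 mM acetate, 300 μM ATP, 2 mM MgCl2 and pyrophosphatase. Released phosphate detected with Biomol Green (30 min), absorbance 620 nm. IC50 from constrained non-linear regression.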

Assay [3] concerns the target T3, ACSS2 in MDA-MB-468 cells (Homo sapiens, UniProt Q9NR19).
T3 construct: endogenous in cells; host or cells: MDA-MB-468 cells, hypoxia (1% O2)
The assay is described as follows: Cellular fatty-acid IC50: 13C-acetate incorporation into fatty acids (palmitate), LC-MS. The class given is cell-based. The following applies: hypoxic conditions (1% O2), 75% charcoal stripped serum, 5 hours, 13C-acetate into palmitate, read-out: Cellular Fatty-acid IC50 High Serum MDA468. The procedure:
Cellular Fatty-Acid IC50 Determination:
The cellular activity of ACSS2 was measured in MDA-MB-468 cells under hypoxic conditions by tracing the incorporation of labelled carbons from ^13C-acetate into newly synthesized fatty acids. The assay was performed using 75% charcoal stripped serum (high serum conditions).
MDA-MB-468 cells were seeded in 12-well plates (0.35×10^6 cells per well) in plating medium (Dulbecco's Modified Eagle Medium containing 25 mM D-glucose, 1 mM sodium pyruvate, 10% v/v fetal bovine serum, and 2 mM glutamine) and incubated for 24 hours under hypoxic conditions (1% O2).
The next day, tracing medium containing DMEM (01-057-1A) containing 75% charcoal stripped serum (Biological industries 04-201-1A), 3.5 μg/mL Biotin (Sigma-Aldrich B4639), 1 mM Pyruvate, 5.5 mM Glucose, 0.65 mM Glutamine and 0.5 mM ^13C-Acetate (Sigma-Aldrich #282014) with serial dilutions of the compounds in the range of 0.000512-1000 nM were prepared. The plating medium was replaced with 1 mL tracing medium plus compounds and the cells were incubated for 5 hours under hypoxic conditions (1% O2). Plating medium in control wells (without cells or without compounds) was replaced with 1 mL tracing medium containing 0.01% v/v DMSO.
The level of ^13C-acetate incorporation into fatty acids (palmitate) was measured by LC-MS analysis and IC50 as described below:
Sample Preparation for LC-MS
• a) Cells were washed twice with cold phosphate buffered saline (PBS), scraped into 0.5 mL EDTA pH 8.0, and transferred into 1.1 mL V-shaped HPLC glass tubes. • b) The cell suspensions were centrifuged for 5 minutes at 400×g, 4° C. and the supernatants were removed. • c) Cell pellets were frozen at −80° C.
• d) Cell pellets were resuspended in 0.2 mL of 80% v/v ethanol in water containing 0.02 M NaOH in 1.1 ml glass (v-bottom) HPLC vials. • e) The vials were closed tight and incubated at 66° C. for 60 minutes. • f) Acetonitrile containing 2% v/v formic acid (150 μL) was added to each vial and the mixtures were transferred to Eppendorf tubes for centrifugation at 17 000×g for 20 minutes. • g) Supernatants were transferred to LC-MS vials.
The relative palmitate concentration was measured by LC-MS in reconstructed selected ion monitoring (RSIM) mode and negative ion mode. Samples were analyzed on a Phenomenex Kinetex 2.6 μm XB-C18 150×2.1 mm column at 45° C. (0.4 mL/minute flow rate) using: • a) A gradient from 15% A/85% C to 100% C for 0 to 2 minutes (A: water containing 5% v/v acetonitrile, 10 mM ammonium acetate, and 10 mM acetic acid; C: a mixture of 50% v/v acetonitrile and 50% v/v methanol). • b) Isocratic flow (100% C) for 2 to 5 minutes. • c) Equilibration in isocratic conditions (15% A/85% C) for 5 to 8 minutes.
Palmitate was eluted at approximately 3.4 minutes.
The percent inhibition was calculated relative to the sample without compound and after background deduction. IC50 values were calculated using non-linear regression curve fit analysis with 0% and 100% constraints (CDD Vault, Collaborative Drug Discovery, Inc. or GraphPad Prism).
The inhibitory activities of each compound against ACSS2 in MDA-MB-468 cells under high serum conditions, as determined by ^13C-acetate incorporation into fatty acids (palmitate), are presented in Table 2.

A value given as a limit tells only on which side of the number the result lay.

T3 sequence (Q9NR19 whole entry): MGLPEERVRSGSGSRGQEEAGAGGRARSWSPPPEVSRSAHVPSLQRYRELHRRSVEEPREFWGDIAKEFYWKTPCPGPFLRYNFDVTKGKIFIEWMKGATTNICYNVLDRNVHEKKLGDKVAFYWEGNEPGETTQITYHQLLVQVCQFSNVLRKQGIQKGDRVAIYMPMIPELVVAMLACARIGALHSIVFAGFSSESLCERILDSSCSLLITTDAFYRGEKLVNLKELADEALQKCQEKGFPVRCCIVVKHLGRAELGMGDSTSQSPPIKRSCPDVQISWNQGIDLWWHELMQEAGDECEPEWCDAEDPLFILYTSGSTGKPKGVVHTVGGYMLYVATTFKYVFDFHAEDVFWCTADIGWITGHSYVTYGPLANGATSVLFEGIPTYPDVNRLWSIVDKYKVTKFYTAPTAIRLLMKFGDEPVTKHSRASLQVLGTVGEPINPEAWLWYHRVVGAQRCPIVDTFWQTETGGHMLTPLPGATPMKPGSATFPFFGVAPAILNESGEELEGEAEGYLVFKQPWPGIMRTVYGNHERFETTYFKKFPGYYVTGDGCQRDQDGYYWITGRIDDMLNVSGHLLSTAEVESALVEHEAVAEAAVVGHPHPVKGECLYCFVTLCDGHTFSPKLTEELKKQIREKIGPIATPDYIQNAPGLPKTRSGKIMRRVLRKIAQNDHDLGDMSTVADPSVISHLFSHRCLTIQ
T1 sequence (Q9NR19 whole entry): as above

Consider `CCC(F)(F)c1cccc(NC(=O)c2c(C)[nH]c(-c3cc(-c4c(C)cccc4C)c(OC)cn3)[n+]2[O-])c1` [Compound 157, 4-((3-(1,1-difluoropropyl)phenyl)carbamoyl)-2-(4-(2,6-dimethylphenyl)-5-methoxypyridin-2-yl)-5-methyl-1H-imidazole 3-oxide], for which the half-inhibitory concentration (IC50) in assay [1] is below 1 nM; in assay [3], above 50 nM. The “ACSS1 Biochemical IC50 (nM)” value in assay [2] was “Inactive”.

Consider `CCC(F)(F)c1cccc(NC(=O)c2c(C)[nH]c(-c3cccc(-c4c(C)cccc4C)c3)[n+]2[O-])c1` [Compound 107, 4-((3-(1,1-difluoropropyl)phenyl)carbamoyl)-2-(2′,6′-dimethyl-[1,1′-biphenyl]-3-yl)-5-methyl-1H-imidazole 3-oxide], for which the IC50 in assay [1] was below 1 nM; in assay [3] it was below 20 nM. The “ACSS1 Biochemical IC50 (nM)” value in assay [2] is reported as “Inactive”.

`CCC(F)(F)c1cccc(NC(=O)c2c(C)[nH]c(-c3ccc(OC)c(-c4c(Cl)cccc4Cl)c3)[n+]2[O-])c1` [Compound 126, 2-(2′,6′-dichloro-6-methoxy-[1,1′-biphenyl]-3-yl)-4-((3-(1,1-difluoropropyl)phenyl)carbamoyl)-5-methyl-1H-imidazole 3-oxide]: the values for the IC50 in assay [1] and in assay [3] were below 1 nM and 20 to 50 nM, respectively. Further, in assay [2], the “ACSS1 Biochemical IC50 (nM)” value was “Inactive”.

On to `CCC(F)(F)c1cccc(NC(=O)c2c(C)[nH]c(-c3cccc(-c4ncncc4C)c3)[n+]2[O-])c1` [Compound 109, 4-((3-(1,1-difluoropropyl)phenyl)carbamoyl)-5-methyl-2-(3-(5-methylpyrimidin-4-yl)phenyl)-1H-imidazole 3-oxide], for which the IC50 in assay [1] is below 1 nM; in assay [3], below 20 nM. The “ACSS1 Biochemical IC50 (nM)” value in assay [2] is recorded as “Inactive”.

As to `Cc1cccc(C)c1-c1cc(OCCN2CCCC2)cc(-c2[nH]c(C)c(C(=O)Nc3cccc(C(F)(F)C4CC4)c3)[n+]2[O-])c1` [Compound 183, 4-((3-(cyclopropyldifluoromethyl)phenyl)carbamoyl)-2-(2′,6′-dimethyl-5-(2-(pyrrolidin-1-yl)ethoxy)-[1,1′-biphenyl]-3-yl)-5-methyl-1H-imidazole 3-oxide], the IC50 is below 1 nM in assay [1] and above 50 nM in assay [3]. Further, the “ACSS1 Biochemical IC50 (nM)” value in assay [2] is reported as “Inactive”.

As for `Cc1[nH]c(-c2ccc(OCCCN3CCCC3)cc2)[n+]([O-])c1C(=O)Nc1cccc(C(F)(F)C2CC2)c1` [Compound 174, 4-((3-(cyclopropyldifluoromethyl)phenyl)carbamoyl)-5-methyl-2-(4-(3-(pyrrolidin-1-yl)propoxy)phenyl)-1H-imidazole 3-oxide], the IC50 in assay [1] was 1 to 30 nM; in assay [3] it was above 50 nM. Moreover, in assay [2], the “ACSS1 Biochemical IC50 (nM)” value was “Inactive”.

In the case of `CCC(F)(F)c1cccc(NC(=O)c2c(C)[nH]c(-c3cccc(-c4c(C)ncnc4C)c3)[n+]2[O-])c1` [Compound 112, 4-((3-(1,1-difluoropropyl)phenyl)carbamoyl)-2-(3-(4,6-dimethylpyrimidin-5-yl)phenyl)-5-methyl-1H-imidazole 3-oxide], the half-inhibitory concentration (IC50) in assay [1] is below 1 nM; in assay [2] (read-out: ACSS1 Biochemical IC50), above 30 nM; in assay [3], below 20 nM.

Take `COc1ccc(-c2[nH]c(C)c(C(=O)Nc3cccc(C(=O)N(C)C)c3)[n+]2[O-])cc1-c1c(C)cccc1C` [Compound 119, 4-((3-(dimethylcarbamoyl)phenyl)carbamoyl)-2-(6-methoxy-2′,6′-dimethyl-[1,1′-biphenyl]-3-yl)-5-methyl-1H-imidazole 3-oxide]: the IC50 in assay [1] was below 1 nM; in assay [3], below 20 nM. Besides, the “ACSS1 Biochemical IC50 (nM)” value in assay [2] was “Inactive”.

For the compound `CNC(=O)c1cccc(NC(=O)c2c(C)[nH]c(-c3ccc(OC)c(-c4c(C)cccc4C)c3)[n+]2[O-])c1` [Compound 146, 2-(6-methoxy-2′,6′-dimethyl-[1,1′-biphenyl]-3-yl)-5-methyl-4-((3-(methylcarbamoyl)phenyl)carbamoyl)-1H-imidazole 3-oxide], the IC50 was below 1 nM in assay [1] and below 20 nM in assay [3]. Moreover, the “ACSS1 Biochemical IC50 (nM)” value in assay [2] is recorded as “Inactive”.

Consider `COc1ccc(-c2[nH]c(C)c(C(=O)Nc3cccc(C(F)(F)C4CC4)c3)[n+]2[O-])cc1-c1c(C)cncc1C` [Compound 105, 4-((3-(cyclopropyldifluoromethyl)phenyl)carbamoyl)-2-(3-(3,5-dimethylpyridin-4-yl)-4-methoxyphenyl)-5-methyl-1H-imidazole 3-oxide], for which the IC50 is below 1 nM in assay [1] and below 20 nM in assay [3]. Besides, the “ACSS1 Biochemical IC50 (nM)” value in assay [2] is “Inactive”.

For the compound `CNC(=O)c1cccc(NC(=O)c2c(C)[nH]c(-c3cc(-c4c(C)cccc4C)cc(N(C)C)c3)[n+]2[O-])c1` [Compound 182, 2-(5-(dimethylamino)-2′,6′-dimethyl-[1,1′-biphenyl]-3-yl)-5-methyl-4-((3-(methylcarbamoyl)phenyl)carbamoyl)-1H-imidazole 3-oxide], the half-maximal inhibitory concentration (IC50) was below 1 nM in assay [1] and below 20 nM in assay [3]. Besides, the “ACSS1 Biochemical IC50 (nM)” value in assay [2] is on record as “Inactive”.

Consider `COc1ccc(-c2[nH]c(C)c(C(=O)Nc3cccc(-c4cn(C)nn4)c3)[n+]2[O-])cc1-c1c(C)cccc1C` [Compound 199, 2-(6-methoxy-2′,6′-dimethyl-[1,1′-biphenyl]-3-yl)-5-methyl-4-((3-(1-methyl-1H-1,2,3-triazol-4-yl)phenyl)carbamoyl)-1H-imidazole 3-oxide], for which the IC50 in assay [1] is below 1 nM; in assay [3], 20 to 50 nM. Besides, the “ACSS1 Biochemical IC50 (nM)” value in assay [2] was “Inactive”.

With `Cc1cccc(C)c1-c1cc(CN(C)C)cc(-c2[nH]c(C)c(C(=O)Nc3cccc(C(F)(F)C4CC4)c3)[n+]2[O-])c1` [Compound 175, 4-((3-(cyclopropyldifluoromethyl)phenyl)carbamoyl)-2-(5-((dimethylamino)methyl)-2′,6′-dimethyl-[1,1′-biphenyl]-3-yl)-5-methyl-1H-imidazole 3-oxide], the IC50 in assay [1] was below 1 nM; in assay [3] it was below 20 nM. Also, in assay [2], the “ACSS1 Biochemical IC50 (nM)” value is “Inactive”.
